{"source": "ChEMBL document CHEMBL1811893", "about": "“Seco-eremophiladiolides and eremophilane glucosides from Pittocaulon velatum” (J Nat Prod, 2011)", "system": "Rattus norvegicus", "test": "Antiinflammatory activity in Lewis rat assessed as inhibition of TPA-induced ear edema", "type": "functional, organism-based", "note": "The source made the active and inactive calls. The rule behind the calls is not given here."}
{"smiles": "CC1=C([C@H]2OC(=O)[C@@H]3CCC[C@H](C)[C@@]23C)C(=O)OC1", "values": [{"measurement": "Activity", "result": "inactive"}]}
{"smiles": "C/C(=C\\O[C@@H]1O[C@H](CO)[C@@H](O)[C@H](O)[C@H]1O)[C@@H]1C[C@@]2(C)C(=CC1=O)CCC[C@@H]2C", "values": [{"measurement": "Activity", "result": "inactive"}]}
{"smiles": "Cc1coc2c1[C@@H](OCC(C)C)[C@]1(C)[C@@H](C)CCC[C@H]1C2=O", "values": [{"measurement": "Activity", "result": "inactive"}]}
{"smiles": "C[C@H]1C[C@@H](O)C[C@H]2C(=O)c3occ(CO)c3[C@@H](O)[C@]12C", "values": [{"measurement": "Activity", "result": "inactive"}]}
{"smiles": "CC1=C([C@@H]2OC(=O)[C@@H]3CCC[C@H](C)[C@]32C)C(=O)OC1", "values": [{"measurement": "Activity", "result": "inactive"}]}
{"smiles": "C/C(=C\\O[C@@H]1O[C@H](CO)[C@@H](O)[C@H](O)[C@H]1O)[C@@H]1C[C@@]2(C)C(=CC1=O)CC[C@@H](O)[C@@H]2C", "values": [{"measurement": "Activity", "result": "inactive"}]}
{"smiles": "Cc1coc2c1[C@@H](OCC(C)C)[C@]1(C)[C@@H](C)CC[C@H]3O[C@]31C2=O", "values": [{"measurement": "Activity", "result": "inactive"}]}
{"smiles": "C/C(=C\\O[C@@H]1O[C@H](CO)[C@@H](O)[C@H](O)[C@H]1O)[C@@H]1C[C@@]2(C)C(=CC1=O)[C@H](O)CC[C@@H]2C", "values": [{"measurement": "Activity", "result": "inactive"}]}
{"smiles": "C/C(=C\\O[C@@H]1O[C@H](CO)[C@@H](O)[C@H](O)[C@H]1O)[C@@H]1C[C@@]2(C)C(=CC1=O)CC[C@H](O)[C@@H]2C", "values": [{"measurement": "Activity", "result": "inactive"}]}
